Test results from ChEMBL document CHEMBL6083291, “Discovery of Thiochroman Derivatives as Potent, Oral Selective Estrogen Receptor Degraders and Antagonists for the Treatment of Endocrine-Resistant Breast Cancer” (J Med Chem, 2024).
pIC50: −log10 of the molar value.

Tests used:
[1] = MRT in Sprague-Dawley rat plasma at 20 mg/kg, po measured for 10 hrs by LC-MS/MS analysis; type: ADME, organism-based
BT-474 = assay: Antiproliferative activity against human BT-474 cells assessed as reduction in cell viability
[2] = Antiproliferative activity against endocrine-resistant human MCF7 Tam1 cells assessed as inhibition of cell growth; details: Tamoxifen-resistant MCF7
[3] = Clearance in Sprague-Dawley rat plasma at 2 mg/kg, iv measured for 24 hrs by LC-MS/MS analysis; type: ADME, organism-based
animal or person [4] = details: Homo sapiens, Tamoxifen-resistant MCF7, po, 504 h, read-out: TGI
MCF7 [5] = assay: Antiproliferative activity against human MCF7 cells harboring ER-alpha Y537S mutant assessed as inhibition of cell growth
[6] = AUC(0 to t) in Sprague-Dawley rat plasma at 10 mg/kg, po measured for 24 hrs by LC-MS/MS analysis; type: ADME, organism-based
[7] = Tmax in Sprague-Dawley rat brain at 20 mg/kg, po measured for 10 hrs by LC-MS/MS analysis; type: ADME, organism-based
[8] = Cmax in Sprague-Dawley rat plasma at 20 mg/kg, po measured for 10 hrs by LC-MS/MS analysis; type: ADME, organism-based
[9] = Volume of distribution at steady state in Sprague-Dawley rat plasma at 2 mg/kg, iv measured for 24 hrs by LC-MS/MS analysis; type: ADME, organism-based; details: read-out: Vdss
[10] = MRT in Sprague-Dawley rat plasma at 10 mg/kg, po measured for 24 hrs by LC-MS/MS analysis; type: ADME, organism-based
[11] = MRT in Sprague-Dawley rat brain at 20 mg/kg, po measured for 10 hrs by LC-MS/MS analysis; type: ADME, organism-based
[12] = Ratio of drug level in brain to plasma in Sprague-Dawley rat at 20 mg/kg, po measured for 10 hrs by LC-MS/MS analysis; type: ADME, organism-based; details: brain and plasma
[13] = Tmax in Sprague-Dawley rat plasma at 20 mg/kg, po measured for 10 hrs by LC-MS/MS analysis; type: ADME, organism-based
CAMA-1 = assay: Antiproliferative activity against human CAMA-1 cells assessed as reduction in cell viability
[14] = AUC(0 to t) in Sprague-Dawley rat brain at 20 mg/kg, po measured for 10 hrs by LC-MS/MS analysis; type: ADME, organism-based; details: in vivo
T47D = assay: Antiproliferative activity against human T47D cells assessed as reduction in cell viability
[15] = Half life in Sprague-Dawley rat brain at 20 mg/kg, po measured for 10 hrs by LC-MS/MS analysis; type: ADME, organism-based
MCF7 [16] = assay: Antiproliferative activity against human MCF7 cells assessed as reduction in cell viability incubated for 6 days by CellTiter-Glo reagent based luminescence analysis; details: mcf7
[17] = MRT in Sprague-Dawley rat plasma at 2 mg/kg, iv measured for 24 hrs by LC-MS/MS analysis; type: ADME, organism-based
[18] = Cmax in Sprague-Dawley rat plasma at 10 mg/kg, po measured for 24 hrs by LC-MS/MS analysis; type: ADME, organism-based
[19] = Oral bioavailability in Sprague-Dawley rat at 10 mg/kg measured for 24 hrs by LC-MS/MS analysis; type: ADME, organism-based; details: in vivo
[20] = AUC(0 to t) in Sprague-Dawley rat plasma at 2 mg/kg, iv measured for 24 hrs by LC-MS/MS analysis; type: ADME, organism-based
animal or person [21] = details: Homo sapiens, Tamoxifen-resistant MCF7, po, 504 h, read-out: TGI; remark: listed apart in the source
[22] = Toxicity against Balb/c mouse xenografted with human MCF7 Tam1 cells assessed as changes in body weight at 10 to 30 mg/kg, po qd for 21 days; type: organism-based; details: in vivo, 504 h, dose 10-30 mg/kg, time 21 day
[23] = Half life in Sprague-Dawley rat plasma at 20 mg/kg, po measured for 10 hrs by LC-MS/MS analysis; type: ADME, organism-based
[24] = Tmax in Sprague-Dawley rat plasma at 10 mg/kg, po measured for 24 hrs by LC-MS/MS analysis; type: ADME, organism-based
[25] = Half life in Sprague-Dawley rat plasma at 10 mg/kg, po measured for 24 hrs by LC-MS/MS analysis; type: ADME, organism-based
[26] = Half life in Sprague-Dawley rat plasma at 2 mg/kg, iv measured for 24 hrs by LC-MS/MS analysis; type: ADME, organism-based
[27] = C0 in Sprague-Dawley rat plasma at 2 mg/kg, iv by LC-MS/MS analysis; type: ADME, organism-based
[28] = Toxicity in Sprague-Dawley rat assessed as thickened endometrium in uterus at 10 mg/kg, po qd for 3 days by Hematoxylin-Eosin staining based analysis; type: organism-based; details: in vivo, 72 h, time 3 day
[29] = AUC(0 to t) in Sprague-Dawley rat plasma at 20 mg/kg, po measured for 10 hrs by LC-MS/MS analysis; type: ADME, organism-based
[30] = Cmax in Sprague-Dawley rat brain at 20 mg/kg, po measured for 10 hrs by LC-MS/MS analysis; type: ADME, organism-based
MDA-MB-361 = assay: Antiproliferative activity against human MDA-MB-361 cells assessed as reduction in cell viability
[31] = Ratio of drug level in brain to plasma in mouse; type: ADME; details: brain and plasma

Question: With `COc1cc(F)ccc1[C@H]1CSc2cc(O)ccc2[C@H]1c1ccc(OCCN2CC(CF)C2)cc1` as the molecule, how does the MRT [1] read?
Answer: 10.6 h

Question: What about the pIC50 (BT-474) of the same molecule?
Answer: 8.40

Question: What about the pIC50 [2] of the same molecule?
Answer: 8.27

Question: And the clearance [3]?
Answer: 23.3 mL/min/kg

Question: And the inhibition in vivo at 10 mg/kg (animal or person [4])?
Answer: 26.8%

Question: What about the pIC50 (MCF7 [5]) of the same molecule?
Answer: 7.97

Question: What about the AUC(0-t) at 24 h [6] of the same molecule?
Answer: 1360 ng·h/mL

Question: What about the Tmax [7] of the same molecule?
Answer: 6 h

Question: And the Cmax [8]?
Answer: 509 ng/mL

Question: What about the Vd [9] of the same molecule?
Answer: 6.6 L/kg

Question: And the MRT [10]?
Answer: 13.4 h

Question: What about the MRT [11] of the same molecule?
Answer: 12.4 h

Question: What about the Kp at 10 h [12] of the same molecule?
Answer: 3.05

Question: What about the Tmax [13] of the same molecule?
Answer: 6 h

Question: What about the pIC50 (CAMA-1) of the same molecule?
Answer: 8.40

Question: What about the AUCt [14] of the same molecule?
Answer: 11170 ng·h/g

Question: And the pIC50 (T47D)?
Answer: 8.40

Question: What about the half-life [15] of the same molecule?
Answer: 7 h

Question: What about the pIC50 (MCF7 [16]) of the same molecule?
Answer: 9.60

Question: And the MRT [17]?
Answer: 5.24 h

Question: What about the Cmax [18] of the same molecule?
Answer: 198 ng/mL

Question: And the bioavailability [19]?
Answer: 19.9%

Question: What about the AUC(0-t) at 24 h [20] of the same molecule?
Answer: 1370 ng·h/mL

Question: And the inhibition in vivo at 30 mg/kg (animal or person [21])?
Answer: 64.5%

Question: What about the Activity [22] of the same molecule?
Answer: Non-toxic

Question: What about the half-life [23] of the same molecule?
Answer: 5.6 h

Question: And the Tmax [24]?
Answer: 3 h

Question: And the half-life [25]?
Answer: 8.9 h

Question: And the half-life [26]?
Answer: 4 h

Question: What about the C0 [27] of the same molecule?
Answer: 741 ng/mL

Question: What about the Activity [28] of the same molecule?
Answer: Non-toxic

Question: And the AUC(0-t) at 10 h [29]?
Answer: 3660 ng·h/mL

Question: And the Cmax [30]?
Answer: 1470 ng/g

Question: What about the pIC50 (MDA-MB-361) of the same molecule?
Answer: ~7.82

Question: Which Kp [31] does the source give for `CCNCCc1ccc(CN(CC)c2cc(OC)ccc2[C@@H]2CCc3cc(O)ccc3C2)cc1` [ELACESTRANT] here?
Answer: 0.36
